Laboratory results published in PubChem BioAssay (NCI).
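Assay format: 96-well plates, 48-hour exposure. The concentration for full growth arrest is given as TGI.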

Experiments:
Experiment in all cases: NCI tumour cell line growth inhibition, 48 h
[1] = tested on: PC-3 prostate
[2] = tested on: OVCAR-5 ovarian
[3] = tested on: SN12C renal
[4] = tested on: CCRF-CEM leukemia
[5] = tested on: OVCAR-8 ovarian
[6] = tested on: BT-549 breast
[7] = tested on: KM12 colon
[8] = tested on: UACC-257 melanoma
[9] = tested on: TK-10 renal
[10] = tested on: UACC-62 melanoma
[11] = tested on: SK-OV-3 ovarian
[12] = tested on: SK-MEL-2 melanoma
[13] = tested on: SK-MEL-28 melanoma
[14] = tested on: HS 578T breast
[15] = tested on: HCT-116 colon
[16] = tested on: SK-MEL-5 melanoma
[17] = tested on: SW-620 colon
[18] = tested on: HOP-92 NSCLC
[19] = tested on: NCI-H226 lung
[20] = tested on: SF-539 CNS
[21] = tested on: NCI-H460 lung
[22] = tested on: LOX IMVI melanoma
[23] = tested on: MOLT-4 leukemia
[24] = tested on: M14 melanoma
[25] = tested on: SR leukemia
[26] = tested on: MCF7 breast
[27] = tested on: HCC-2998 colon
[28] = tested on: NCI/ADR-RES ovarian
[29] = tested on: HL-60(TB) leukemia
[30] = tested on: 786-0 renal
[31] = tested on: EKVX NSCLC
[32] = tested on: NCI-H23 lung
[33] = tested on: K-562 leukemia
[34] = tested on: HT29 colon
[35] = tested on: RXF 393 renal
[36] = tested on: HCT-15 colon
[37] = tested on: ACHN renal
[38] = tested on: A549 NSCLC
[39] = tested on: OVCAR-4 ovarian
[40] = tested on: SNB-19 CNS
[41] = tested on: OVCAR-3 ovarian
[42] = tested on: A498 renal
[43] = tested on: COLO 205 colon
[44] = tested on: CAKI-1 renal
[45] = tested on: MDA-N
[46] = tested on: U251 CNS
[47] = tested on: MALME-3M melanoma
[48] = tested on: SF-295 CNS
[49] = tested on: UO-31 renal
[50] = tested on: HOP-62 NSCLC
[51] = tested on: IGROV1 ovarian
[52] = tested on: SNB-75 CNS
[53] = tested on: MDA-MB-231 breast
[54] = tested on: DLD-1 colon
[55] = tested on: RPMI-8226 leukemia
[56] = tested on: SNB-78 CNS
[57] = tested on: HOP-18 NSCLC
[58] = tested on: DMS 273 small cell lung
[59] = tested on: LXFL 529 NSCLC
[60] = tested on: M19-MEL melanoma
[61] = tested on: NCI-H522 lung

CC(C)(C)n1c(=O)[nH]c(=O)n1C(C)(C)C
TGI [1]: > 100 µM | TGI [2]: > 100 µM | TGI [3]: > 100 µM | TGI [4]: > 100 µM | TGI [5]: > 100 µM | TGI [6]: > 100 µM | TGI [7]: > 100 µM | TGI [8]: > 100 µM | TGI [9]: > 100 µM | TGI [10]: > 100 µM | TGI [11]: > 100 µM | TGI [12]: > 100 µM | TGI [13]: > 100 µM | TGI [14]: > 100 µM | TGI [15]: > 100 µM | TGI [16]: > 100 µM | TGI [17]: > 100 µM | TGI [18]: > 100 µM | TGI [19]: > 100 µM | TGI [20]: > 100 µM | TGI [21]: > 100 µM | TGI [22]: > 100 µM | TGI [23]: > 100 µM | TGI [24]: > 100 µM | TGI [25]: > 100 µM | TGI [26]: > 100 µM | TGI [27]: > 100 µM | TGI [28]: > 100 µM | TGI [29]: > 100 µM | TGI [30]: > 100 µM | TGI [31]: > 100 µM | TGI [32]: > 100 µM | TGI [33]: > 100 µM | TGI [34]: > 100 µM | TGI [35]: > 100 µM | TGI [36]: > 100 µM | TGI [37]: > 100 µM | TGI [38]: > 100 µM | TGI [39]: > 100 µM | TGI [40]: > 100 µM | TGI [41]: > 100 µM | TGI [42]: > 100 µM | TGI [43]: > 100 µM | TGI [44]: > 100 µM | TGI [45]: > 100 µM | TGI [46]: > 100 µM | TGI [47]: > 100 µM | TGI [48]: > 100 µM | TGI [49]: > 100 µM | TGI [50]: > 100 µM | TGI [51]: > 100 µM | TGI [52]: > 100 µM | TGI [53]: > 100 µM

O=C1C=CC(=O)c2c(O)c(NCCOCCO)c(Cl)c(O)c21
TGI [54]: 5.51 µM | TGI [55]: > 100 µM | TGI [2]: 34.1 µM | TGI [56]: 30.2 µM | TGI [3]: 23 µM | TGI [5]: 20.4 µM | TGI [7]: 15.1 µM | TGI [8]: 8.34 µM | TGI [9]: 26.6 µM | TGI [10]: 11.7 µM | TGI [11]: 31.1 µM | TGI [12]: 21.7 µM | TGI [57]: 29.1 µM | TGI [58]: 14.8 µM | TGI [15]: 8.32 µM | TGI [16]: 4.47 µM | TGI [17]: 11 µM | TGI [59]: 20.4 µM | TGI [18]: 39.4 µM | TGI [19]: 32.4 µM | TGI [20]: 15 µM | TGI [21]: 13.6 µM | TGI [22]: 16.7 µM | TGI [23]: 27.4 µM | TGI [24]: 23.5 µM | TGI [25]: 37.9 µM | TGI [29]: > 100 µM | TGI [30]: 17.2 µM | TGI [32]: 3.51 µM | TGI [33]: > 100 µM | TGI [35]: 27.1 µM | TGI [36]: 3.64 µM | TGI [37]: 28.7 µM | TGI [38]: 19.1 µM | TGI [39]: 5.91 µM | TGI [43]: 4.8 µM | TGI [44]: 39.6 µM | TGI [46]: 30.7 µM | TGI [47]: 8.43 µM | TGI [48]: 24.1 µM | TGI [49]: 29.7 µM | TGI [50]: 34.2 µM | TGI [51]: 18.1 µM | TGI [60]: 3.22 µM | TGI [52]: 30.9 µM | TGI [61]: 3.69 µM
